Assay results as given in PubChem BioAssay (NCI).
Values joined by “and” are separate entries in the source; they are usually repeats but may differ in a detail not shown here. Equal entries are not always repeated.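 Cells were grown in 96-well plates and exposed to each compound for 48 hours at five concentrations; endpoints were interpolated linearly between bracketing concentrations, or set to the highest concentration if not reached. Abbreviation: GI50, concentration required for 50% inhibition of growth. TGI: total growth inhibition.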

Experiments:
Experiment in all cases: NCI tumour cell line growth inhibition, 48 h
SNB-75 CNS = tested on: SNB-75 CNS
PC-3 prostate = tested on: PC-3 prostate
NCI/ADR-RES ovarian = tested on: NCI/ADR-RES ovarian
OVCAR-3 ovarian = tested on: OVCAR-3 ovarian
TK-10 renal = tested on: TK-10 renal
SR leukemia = tested on: SR leukemia
HOP-62 NSCLC = tested on: HOP-62 NSCLC
HOP-92 NSCLC = tested on: HOP-92 NSCLC
HS 578T breast = tested on: HS 578T breast
SNB-19 CNS = tested on: SNB-19 CNS

Structure (SMILES) | GI50 (SNB-75 CNS) [µM] | TGI (SNB-75 CNS) | GI50 (PC-3 prostate) [µM] | TGI (PC-3 prostate) [µM] | GI50 (NCI/ADR-RES ovarian) [µM] | TGI (NCI/ADR-RES ovarian) [µM] | GI50 (OVCAR-3 ovarian) [µM] | TGI (OVCAR-3 ovarian) [µM] | GI50 (TK-10 renal) [µM] | TGI (TK-10 renal) [µM] | GI50 (SR leukemia) [µM] | TGI (SR leukemia) [µM] | GI50 (HOP-62 NSCLC) [µM] | TGI (HOP-62 NSCLC) [µM] | GI50 (HOP-92 NSCLC) [µM] | TGI (HOP-92 NSCLC) [µM] | GI50 (HS 578T breast) [µM] | TGI (HS 578T breast) | GI50 (SNB-19 CNS) [µM] | TGI (SNB-19 CNS) [µM]
O=C(O)c1ccc(CN2CCC(CN[C@@H]3C[C@H]3c3ccccc3)CC2)cc1 | > 100 | > 100 µM | > 100 | > 100 | > 100 | > 100 | > 100 | > 100 | > 100 | > 100 | > 100 | > 100 | > 100 | > 100 | > 100 | > 100 | > 100 | > 100 µM | > 100 | > 100
CC(C)(C)c1cc([N+](=O)[O-])cc([N+](=O)[O-])c1O |  | > 10 µM |  | > 10 |  | > 10 |  | > 10 |  | > 10 |  | > 10 |  | > 10 |  | > 10 |  | > 10 µM |  | > 10
Cc1nnc(-c2ccc(C)c(-c3ccc(C(=O)Nc4cccc(C#N)c4)cc3)c2)o1 | > 25 | > 25 µM | > 25 | > 25 | > 25 | > 25 | > 25 | > 25 | > 25 | > 25 | > 25 | > 25 | > 25 | > 25 | > 25 | > 25 | > 25 | > 25 µM | > 25 | > 25
CN(C)Cc1cc(C(F)(F)F)ccc1C(O)(c1ccccc1)c1ccccc1 |  | 21.8 µM |  | 36 |  | 30.4 |  | > 100 |  | 31 |  | 28 |  | 33.7 |  | 27 |  | > 100 µM |  | 38.4
CC/C=C\C[C@H]1CC=C2C(=O)C=C[C@@H]2CC=CCCCC(=O)O[C@@H](CCCCC)CC=C2C(=O)C=C[C@@H]2CC=CCCCC(=O)O[C@@H](CCCCC)CC=C2C(=O)C=C[C@@H]2CC=CCCCC(=O)O[C@@H](CCCCC)CC=C2C(=O)C=C[C@@H]2CC=CCCCC(=O)O1 | 3.8 | > 7.9 µM | 2.38 | > 7.9 | > 7.9 | > 7.9 | 1.66 | 4.01 | 3 | > 7.9 | 1.58 | > 7.9 | 1.71 | 3.86 | 1.53 | 4.32 | 2.68 | > 7.9 µM | 2.83 | > 7.9
COCCOC(=O)C1=C(O)c2ccccc2S(=O)(=O)N1C |  | 87.6 µM |  | > 100 |  | > 100 |  | > 100 |  | > 100 |  | > 100 |  | > 100 |  | > 100 |  | > 100 µM |  | > 100
Oc1ccc2ccccc2c1N=Nc1cccc2ccccc12 |  | > 100 µM and 80.4 µM |  | > 100 |  | > 100 |  | > 100 |  | > 100 |  | > 100 |  | > 100 |  | > 100 |  | > 100 µM and 77.7 µM |  | > 100
COc1ccc(C(C#N)NC23CC4CC(CC(C4)C2)C3)cc1 (stereo not given) |  | > 100 µM |  | > 100 |  | > 100 |  | > 100 |  | > 100 |  | > 100 |  | > 100 |  | > 100 |  | > 100 µM |  | > 100
O=C1C=CC(=O)C2C1C1(Cl)C(Cl)=C(Cl)C2(Cl)C1(Cl)Cl (stereo not given) | 1.13 | 5.48 µM | 2.73 | 20 | 3.75 | > 100 | 2.03 | 5.08 | 8.07 | 81 | 2.53 | 12.3 | 10.6 | 26.2 | 1.69 | 6.88 | 2.51 | 7.92 µM | 11.2 | 25.4
Cc1cn(C2CC(OC(=O)c3ccc(Cl)cc3)C(COC(=O)c3ccc(Cl)cc3)O2)c(=O)[nH]c1=O (stereo not given) |  | > 100 µM |  | > 100 |  | > 100 |  | > 100 |  | > 100 |  | > 100 |  | > 100 |  | > 100 |  | > 100 µM |  | > 100
